Assay results as given in patent US11207320B2, “Compositions and methods for cancer expressing PDE3A or SLFN12” (The Broad Institute, Inc., priority 2015, dated 2021).
pEC50: −log10 of the molar value.

What was measured:
NCI-H2122 cells = experiment: Compound sensitivity testing in cell lines (48 h viability); type: cell-based; conditions: Homo sapiens; NCI-H2122, 48 hours
Method: (§1) 1500 NCI-H1734 or 1000 A549 cells were plated in a 384-well plate in 40 μl of RPMI supplemented with 10% Fetal Bovine Serum and 1% Pen/Strep. 24 hours after plating, a compound-library of 1924 small molecules was added at a concentration of 10 μM. Staurosporine was used a positive control for cytotoxicity at a concentration of 10 μM, and DMSO was used a negative control at a concentration of 1%. All compounds were incubated for 48 hours with indicated small molecules. After 48 hours, 384-well plates were removed from the incubator and allowed to cool to room temperature for 20 minutes. Cell viability was assessed by adding 40 μl of a 25% CELLTITERGLO® (Promega) in PBS with a THERMO COMBI™ or multichannel-pipette and incubated for 10 minutes. The luminescence signal was read using a Perkin-Elmer EnVision. Viability percentage was calculated by normalizing to DMSO controls.
(§2) 1000 HeLa (DMEM), 1000 A549 (RPMI), 500 MCF-7 (DMEM), 4000 PC3 (F12-K), 1000 NCI-H2122 (RPMI) or 1500 NCI-H1563 (RPMI) cells were plated in a 384-well plate in 40 μl of corresponding growth media supplemented with 10% Fetal Bovine Serum. 24 hours after plating, indicated compounds were added at indicated concentrations and incubated for 48 hours. Cell viability was assessed as described in Compound library screening in NCI-H1734 and A549 cell lines.

MCF7 cells = experiment: as above; type: cell-based; conditions: Homo sapiens; MCF7, 48 hours
Method: as §1, §2

NCI-H1563 cells = experiment: as above; type: cell-based; conditions: Homo sapiens; NCI-H1563, 48 hours
Method: as §1, §2

PC3 cells = experiment: as above; type: cell-based; conditions: Homo sapiens, PC-3; PC3, 48 hours
Method: as §1, §2

A549 cells = experiment: as above; type: cell-based; conditions: Homo sapiens; A549, 48 hours
Method: as §1, §2

HeLa cells [1] = experiment: DNMDP cytotoxicity after targeting PDE3A locus using CRISPR; type: cell-based; conditions: HeLa infected with Cas9 and sgRNAs against PDE3A
Method: FIG. 11A is a Western blot. HeLa cells were infected with Cas9 and indicated guide RNAs (sgRNA) against PDE3A. Western blots were probed for PDE3A at indicated time points. FIG. 11B is a bar graph showing percent rescue of HeLa cells that were infected with indicated sgRNAs for two weeks and treated with 1 μM of 6-(4-(diethylamino)-3-nitrophenyl)-5-methyl-4,5-dihydropyridazin-3(2H)-one (DNMDP) for 48 hours. Percent rescue was normalized to the Cas9-only control. FIG. 11C is a plot showing viability of cells infected with indicated sgRNAs and treated with various concentrations of 6-(4-(diethylamino)-3-nitrophenyl)-5-methyl-4,5-dihydropyridazin-3(2H)-one (DNMDP).
Based on the observations that DNMDP-sensitive cells expressed high levels of PDE3A, and that DNMDP competed with non-cytotoxic inhibitors for PDE3A binding, it was hypothesized that DNMDP mediated its cytotoxic phenotype through the interaction with PDE3A and that PDE3A abundance was a direct cellular determinant of DNMDP sensitivity. To validate this hypothesis, the effect of reducing levels of PDE3A on the response to DNMDP was tested. […] In an independent approach using an siRNA smart-pool containing four different siRNAs targeting PDE3A, PDE3A expression was reduced in HeLa cell line with a maximum efficiency of 70% between 24 and 72 hours after transfection. […]

234 kinases = experiment: Screening of 234 kinases; type: biochemical; conditions: 10 μM
HeLa cells [2] = experiment: Knockdown of SLFN12 expression using shRNA and testing for drug sensitivity; type: cell-based; conditions: 72 hours
Description: FIG. 15A is a scatterplot showing mRNA robust multichip average (RMA) expression values for PDE3A and SLFN12 from the Cancer Cell Line Encyclopedia (CCLE) database (a detailed genetic characterization of a large panel of human cancer cell lines) with sensitive cell lines indicated (Barretina et al., Nature 483, 603-607, 2012). 21 sensitive cell lines were binned in three groups of 7 based on area under the curve (AUC) rank. FIG. 15B is a bar graph showing results of a Fisher's exact test on DNMDP sensitivity of cell lines with high expression of both SLFN12 and PDE3A (RMA Log 2>5) compared to other cell lines. The top half of the bar on the right indicates melanoma cell lines. FIG. 15C is a scatterplot showing mRNA RPKM+1 expression values for PDE3A and SLFN12 from RNA sequencing data. FIG. 15D is a bar graph showing qPCR expression changes of SLFN12 in HeLa cells transduced with shSLFN12 normalized to GAPDH. FIG. 15E is a plot showing viability of HeLa cells transduced with indicated shRNA reagents and treated with indicated concentrations of DNMDP for 72 hours.
Constructs expressing shRNAs targeting SLFN12, or the control vector, were packaged into lentiviruses and delivered into HeLa cells by viral transduction. […] SLFN12-targeting shRNAs were used, all of which were obtained from the TRC (CloneIDs: TRCN0000152141 and TRCN0000153520). […]

pEC50 (NCI-H2122 cells): 7.00 to 8.00 | pEC50 (MCF7 cells): < 6.00 | pEC50 (NCI-H1563 cells): 7.00 to 8.00 | pEC50 (PC3 cells): < 6.00 | pEC50 (A549 cells): < 6.00 | kinase inhibition (234 kinases): no kinase inhibition
SMILES: CCN(CC)c1ccc(C2=NNC(=O)CC2C)cc1[N+](=O)[O-] (centres unmarked) [DNMDP, 6-(4-(diethylamino)-3-nitrophenyl)-5-methyl-4,5-dihydropyridazin-3(2H)-one]
rescue of toxicity by PDE3A sgRNA2 and sgRNA3 (HeLa cells [1]): significant rescue of toxicity | sensitivity after reduction of SLFN12 expression (shRNA) (HeLa cells [2]): decreased sensitivity
